Consider four compounds from patent publication US12454520B2, “Protein degraders and uses thereof” (Kymera Therapeutics, Inc., priority 2018, dated 2025).

T1 sequence (P51531 whole entry): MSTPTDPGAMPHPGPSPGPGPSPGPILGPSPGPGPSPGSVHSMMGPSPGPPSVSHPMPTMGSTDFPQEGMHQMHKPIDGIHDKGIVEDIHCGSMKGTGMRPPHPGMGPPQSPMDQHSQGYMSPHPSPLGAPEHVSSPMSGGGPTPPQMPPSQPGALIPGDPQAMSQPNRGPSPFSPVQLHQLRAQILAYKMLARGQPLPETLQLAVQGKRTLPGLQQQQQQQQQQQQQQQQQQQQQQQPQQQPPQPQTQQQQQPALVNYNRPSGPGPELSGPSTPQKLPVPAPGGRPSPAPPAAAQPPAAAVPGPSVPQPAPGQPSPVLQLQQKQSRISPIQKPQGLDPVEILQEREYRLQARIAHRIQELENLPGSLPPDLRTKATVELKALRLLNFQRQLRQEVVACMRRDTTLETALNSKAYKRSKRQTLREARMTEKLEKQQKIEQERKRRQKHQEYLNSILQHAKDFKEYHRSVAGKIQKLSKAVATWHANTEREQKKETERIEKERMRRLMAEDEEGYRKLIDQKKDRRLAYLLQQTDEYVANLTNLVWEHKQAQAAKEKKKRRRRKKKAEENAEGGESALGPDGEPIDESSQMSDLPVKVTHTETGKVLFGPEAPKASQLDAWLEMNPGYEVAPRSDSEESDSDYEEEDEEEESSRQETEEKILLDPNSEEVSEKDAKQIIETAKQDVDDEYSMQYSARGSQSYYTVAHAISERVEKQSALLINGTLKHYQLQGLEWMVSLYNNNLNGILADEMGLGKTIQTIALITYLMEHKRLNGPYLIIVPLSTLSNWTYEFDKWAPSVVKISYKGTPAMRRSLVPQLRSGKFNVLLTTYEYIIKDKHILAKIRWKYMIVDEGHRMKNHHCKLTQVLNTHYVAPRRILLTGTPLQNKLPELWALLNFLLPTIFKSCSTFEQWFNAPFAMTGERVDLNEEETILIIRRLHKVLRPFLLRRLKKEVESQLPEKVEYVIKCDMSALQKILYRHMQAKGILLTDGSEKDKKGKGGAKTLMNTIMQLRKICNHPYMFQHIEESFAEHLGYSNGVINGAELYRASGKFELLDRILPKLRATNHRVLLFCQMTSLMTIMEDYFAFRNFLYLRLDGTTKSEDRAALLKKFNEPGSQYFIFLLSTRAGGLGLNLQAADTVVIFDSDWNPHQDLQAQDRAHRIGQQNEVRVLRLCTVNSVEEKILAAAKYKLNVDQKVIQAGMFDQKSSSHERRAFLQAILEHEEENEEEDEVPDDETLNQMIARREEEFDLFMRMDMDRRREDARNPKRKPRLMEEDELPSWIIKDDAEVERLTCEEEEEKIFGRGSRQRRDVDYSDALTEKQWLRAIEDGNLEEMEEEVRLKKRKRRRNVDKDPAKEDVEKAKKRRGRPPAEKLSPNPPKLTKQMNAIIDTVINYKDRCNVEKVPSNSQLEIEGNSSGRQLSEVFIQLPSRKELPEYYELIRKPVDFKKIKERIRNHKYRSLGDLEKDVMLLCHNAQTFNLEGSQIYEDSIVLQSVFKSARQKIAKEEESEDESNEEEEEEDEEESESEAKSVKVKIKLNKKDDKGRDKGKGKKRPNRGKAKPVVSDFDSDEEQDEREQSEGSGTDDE

The experiment addresses T1, SMARCA2 (Homo sapiens, UniProt P51531).
T1 construct: endogenous in cells; host or cells: NCI-H1299
Nature of the experiment: MSD SMARCA2 degradation in NCI-H1299 cell line. It counts as cell-based. Conditions: NCI-H1299 cells, percentage of SMARCA2 degradation after 24 hours. As for the experimental part: Example 14. MSD SMARCA2 Degration in NCI-H1299 Cell Line
Cell Culture: Cells were cultured in exponential growth phase.
Compound Preparation and Treatment: NCI-H1299 cells were seeded into the 96-well plate at 4.0*10^4 cells per 100ul per well. Incubate the plate in the incubator overnight. The next day, compounds were diluted to designed stock concentration by TECAN, then perform a 3 fold, 9-point dilution via transferring 15 uL compound into 30 μL DMSO using Apricot. 200 nL diluted compound from compound source plate were transferred into the 96-intermediate plate as designated by using Echo550, followed with 100 ul culture medium to make the 2× compound solution. Cell plate were changed with 80 ul of fresh culture medium and 80 ul of 2× compound solution was added into the well to achieve the final designed concentration. Cell plate was then shaken at 720 rpm for 5 min and incubated for 24 hours in the incubator.
Sample Preparation: Media was aspirated from the cultures and the plate was washed with PBS twice. 60 ul of pre-chilled PIPA lysis buffer (Boston BioProducts BP-115D) with protease inhibitor were directly added into the well to lyze the cells for 20 minutes at 4° C. Cell lysates were collected.
MSD Procedure: The MSD plate was coated with 40 ul cell lysate and incubated at 4° C. overnight. The next day, the MSD coated bare plate was washed 3 times with 150 ul 1×TBST per well, blocked with 150 ul of blocking buffer per well, and shaken for 1 hour at RT, 600 rpm. Blocking buffer was 3% Blocker A in TBST. MSD plate was then washed 3 times with 150 ul 1×TBST per well and Primary Detection antibody (Rabbit anti-SMARCA2/BRM antibody, 100 μg/ml, ab223735) was added to a final [conc.]: 0.3 ug/ml, 25ul/well and shaken for 1 hour at RT, 600 rpm. Antibody was prepared in Antibody Detection buffer (1% Blocker A in 1×TBST). The MSD plate was then washed 3 times with 150 ul 1×TBST per well. Secondary Detection antibody (SULFO-TAG anti-species antibody) was then added to a final [conc.]: 1 μg/ml, 25 ul/well, and shaken for 1 hour at RT, 600 rpm. Antibodies were prepared in Antibody Detection buffer (1% Blocker A in 1×TBST). MSD plate was washed 3 times with 150 ul 1×TBST per well and 2×MSD reading buffer was added, 150 ul per well, and diluted from 4× with water. MSD instrument was then read.
Data Analysis: The percentage of relative level of SMARCA2 level was calculated following equation below.
LC: A2780, SMARCA2 negative cells. HC: NCI-H1299 cells treated with DMSO.
The letter codes for the percentage of SMARCA2 degradation after 24 hours (Dmax %) include: A (>90% degradation), B (>70-90% degradation), C (50-70% degradation), and D (<50% degradation).
In general, Dmax refers to the greatest extent of degradation seen. In turn, `Nc1nnc(-c2ccccc2O)cc1-c1cnn(C2CCCN(CCCc3ccnc4c3c3ccccc3n4C3CCC(=O)NC3=O)C2)c1` (stereo not shown) [I-143] displayed a maximal degradation (Dmax) of over 90%. The same measure for `Nc1nnc(-c2ccccc2O)cc1-c1cnn(C2CCN(C3CCC(c4ccc5c(c4)c4cccnc4n5C4CCC(=O)NC4=O)CC3)CC2)c1` (stereo not shown) [I-144]: over 90%; for `Nc1nnc(-c2ccccc2O)cc1N1CC2CCC(C1)N2c1ncc(C2CCN(CCCc3ccnc4c3c3ccccc3n4C3CCC(=O)NC3=O)CC2)cn1` (stereo not shown) [I-145, 3-(4-(3-(4-(2-(3-(3-amino-6-(2-hydroxyphenyl)pyridazin-4-yl)-3,8-diazabicyclo[3.2.1]octan-8-yl)pyrimidin-5-yl)piperidin-1-yl)propyl)-9H-pyrido[2,3-b]indol-9-yl)piperidine-2,6-dione]: over 90%; for `Nc1nnc(-c2ccccc2O)cc1-c1cnn(C2CCN(Cc3cn(Cc4ccc5c(c4)c4cccnc4n5C4CCC(=O)NC4=O)nn3)CC2)c1` (stereo not shown) [I-146, 3-(6-((4-((4-(4-(3-amino-6-(2-hydroxyphenyl)pyridazin-4-yl)-1H-pyrazol-1-yl)piperidin-1-yl)methyl)-1H-1,2,3-triazol-1-yl)methyl)-9H-pyrido[2,3-b]indol-9-yl)piperidine-2,6-dione]: 70 to 90%.
